According to patent publication US20030095962A1, “Chimeric cell-surface receptors that undergo antigen-induced association” (priority 1997, published 2003):

Legend:
[1] = tested on: Ba/HEL cells (Ba/F3 cells expressing VH/VL-EpoR chimeric receptors); experiment: Antigen-dependent growth of Ba/HEL cell clones (viable cell count, trypan blue); assay type: cell-based, mouse
Description: FIG. 3 is a graph showing the relation between the concentrations of antigen n a culture medium and cell growth rates. Clone G8 was obtained by transforming Ba/F3 cells with the VH/VL EpoR vector constructs and growing in the presence of antigen. In this experiment, separate cultures of Clone G8 was cultured with different constant amounts of the antigen HEL over a 5-day period. Cell proliferation was dose-dependent, and was inducible up to at least about 5 times the rate by including antigen in the culture medium.
The clones of Ba/HEL cells were cultured with various concentrations of HEL to measure the change of the cell number over time. HEL was added in the concentrations of 0, 0.005, 0.05 and 0.5 μg/ml to the RPMI 1640 medium containing 10% FBS, seeded Ba/HEL clones with the initial concentration of 5×10^3 ml, and measured the change in the number of viable cells over time by the cell count method using trypan blue.
Cell growth was conspicuously accelerated with as low as 5 ng/ml antigen. This concentration agrees with the detectable antigen concentration in the immunoassay based on VH/VL association of HyHEL-10 Fv (Ueda et al., Nature Biotech, 14, 1714-1718, 1996). Accordingly, antigen concentration can be measured, that is, immunoassay can be performed using the level of growth of this cell as an index.

Ba/F3 cells = experiment: Growth of Ba/F3 cells without expression vectors in HEL-containing medium without IL-3; assay type: cell-based, mouse; details: RPMI 1640, 10 μg/ml HEL, 10% FBS, no expression vectors introduced
Description: Two plasmids, PME-VHER and pME-VLER, produced in Example 1, were introduced into the cell line Ba/F3 which is derived from the interleukin-3 (IL-3) dependent mouse pro-B cells, by using electroporation method. The Ba/F3 cells (2×10^6) in the logarithmic growth period and 5 μg each of above plasmid DNAs linearized with the restriction enzyme KpnI were suspended in 100 μl HBS (Hanks' Buffered Saline: Nissui Pharmacy). Rectangular pulses, 500 volts/150 μsec, were applied 10 times using a gene introduction electric pulse generator (electrodes of 4 mm intervals, Bio-Rad). The cells was kept at room temperatures for five minutes, diluted in 4 ml RPMI 1640 culture media (Nissui Pharmacy) containing 400 μg/ml G418 (Sigma), 8 ng/ml mouse IL-3 (Genzyme) and 10% fetal bovine serum (FBS, Gibco), added into 24-well plates 1 ml each, and cultured for two weeks at 37° C. in the 5% CO2 humidified atmosphere. The resultant colonies were mixed and cultured for another three days in the same media 100 μl cell suspensions were diluted in 2 ml RPMI 1640 medium containing 10 μg/ml hen egg lysozyme (HEL, Seikagaku) and 10% FBS (Gibco) and were subcultured. The Ba/F3 cell line is known to be released from IL-3 dependency by the ectopic expression of the EPO receptor when EPO is added to the medium. […]

hen egg lysozyme [HEL] was tested, and the “Cell growth in relation to the HEL concentration in the medium” value ([1]; Ba/HEL clone G8, similar results for all clones inspected) was “cell growth depends on the concentration of HEL”, the “Antigen concentration at which cell growth was conspicuously accelerated” value ([1]; Ba/HEL clones, RPMI 1640 with 10% FBS, HEL 0, 0.005, 0.05 and 0.5 μg/ml) was at most 5 ng/mL and the “Cell proliferation inducible by including antigen in the culture medium” value ([1]; Clone G8, different constant amounts of HEL over a 5-day period) was “at least 5 times the rate”. For the same substance, the “Growth of cells in HEL-containing medium” value (Ba/F3 cells) was “did not grow”.
